The results in this text go back to patent publication US20110183980A1, “O-BENZYL NICOTINAMIDE ANALOGS AS MGLUR5 POSITIVE ALLOSTERIC MODULATORS” (priority 2009, published 2011).

The target in the experiment is T1, rat mGluR5 (Rattus norvegicus, UniProt P31424).
T1 construct: expressed in transfected cells; host or cells: human embryonic kidney (HEK) cells
T1 sequence (P31424 21-1203): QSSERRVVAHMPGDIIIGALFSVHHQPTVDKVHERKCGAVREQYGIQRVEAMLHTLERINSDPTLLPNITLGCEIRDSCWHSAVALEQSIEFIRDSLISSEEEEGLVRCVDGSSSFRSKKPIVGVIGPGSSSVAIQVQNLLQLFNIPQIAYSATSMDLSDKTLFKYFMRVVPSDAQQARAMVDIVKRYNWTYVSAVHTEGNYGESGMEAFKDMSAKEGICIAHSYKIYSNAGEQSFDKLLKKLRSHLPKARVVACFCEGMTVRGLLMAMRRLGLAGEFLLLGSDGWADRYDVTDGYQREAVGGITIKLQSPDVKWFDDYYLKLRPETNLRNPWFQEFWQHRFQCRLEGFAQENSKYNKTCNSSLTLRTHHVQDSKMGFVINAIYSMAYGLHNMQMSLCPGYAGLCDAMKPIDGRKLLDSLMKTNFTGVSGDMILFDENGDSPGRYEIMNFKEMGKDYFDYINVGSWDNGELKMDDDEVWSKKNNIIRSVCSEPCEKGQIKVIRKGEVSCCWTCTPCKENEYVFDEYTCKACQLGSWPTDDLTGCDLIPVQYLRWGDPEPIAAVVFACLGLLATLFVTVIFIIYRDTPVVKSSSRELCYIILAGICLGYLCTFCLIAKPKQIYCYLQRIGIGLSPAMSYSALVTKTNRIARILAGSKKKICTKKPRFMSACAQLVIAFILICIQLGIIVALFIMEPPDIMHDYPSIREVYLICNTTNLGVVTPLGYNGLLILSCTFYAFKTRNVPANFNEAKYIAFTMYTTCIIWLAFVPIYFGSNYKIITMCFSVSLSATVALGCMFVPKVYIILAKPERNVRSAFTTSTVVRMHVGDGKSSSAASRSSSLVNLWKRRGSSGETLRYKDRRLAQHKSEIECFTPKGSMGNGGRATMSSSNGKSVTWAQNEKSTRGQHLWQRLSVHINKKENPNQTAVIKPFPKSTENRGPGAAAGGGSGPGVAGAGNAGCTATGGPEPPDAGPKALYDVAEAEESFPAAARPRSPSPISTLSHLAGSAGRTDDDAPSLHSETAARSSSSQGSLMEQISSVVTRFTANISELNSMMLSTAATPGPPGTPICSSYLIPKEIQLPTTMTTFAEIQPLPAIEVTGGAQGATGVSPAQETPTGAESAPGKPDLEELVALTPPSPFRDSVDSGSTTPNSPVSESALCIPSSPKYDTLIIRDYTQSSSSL
Briefly: Potentiation of glutamate response, Ca2+ fluorescence (FDSS) in HEK cells transfected with rat mGluR5. The following applies: Table 1; potentiation of mGluR5 response to glutamate; read-out: EC50. Format: cell-based. The procedure:
Human embryonic kidney (HEK) cells transfected with rat mGluR5 were plated in clear bottom assay plates for assay in a Functional Drug Screening System (FDSS). The cells were loaded with a Ca^2+-sensitive fluorescent dye (e.g., Fluo-4), and the plates were washed and placed in the FDSS instrument. After establishment of a fluorescence baseline for twelve seconds, the compounds of the present invention were added to the cells, and the response in cells was measured. Five minutes later, an mGluR5 agonist (e.g., glutamate, 3,5-dihydroxyphenylglycine, or quisqualate) was added to the cells, and the response of the cells was measured. Potentiation of the agonist response of mGluR5 by the compounds in the present invention was observed as an increase in response to non-maximal concentrations of agonist (here, glutamate) in the presence of compound compared to the response to agonist in the absence of compound.
The above described assay operated in two modes. In the first mode, a range of concentrations of the present compounds were added to cells, followed by a single fixed concentration of agonist. If a compound acted as a potentiator, an EC50 value for potentiation and a maximum extent of potentiation by the compound at this concentration of agonist was determined by non-linear curve fitting. In the second mode, several fixed concentrations of the present compounds were added to various wells on a plate, followed by a range of concentrations of agonist for each concentration of present compound; the EC50 values for the agonist at each concentration of compound were determined by non-linear curve fitting. A decrease in the EC50 value of the agonist with increasing concentrations of the present compounds (a leftward shift of the agonist concentration-response curve) is an indication of the degree of mGluR5 potentiation at a given concentration of the present compound. An increase in the EC50 value of the agonist with increasing concentrations of the present compounds (a rightward shift of the agonist concentration-response curve) is an indication of the degree of mGluR5 antagonism at a given concentration of the present compound. The second mode also indicates whether the present compounds also affect the maximum response to mGluR5 to agonists.
The term EC50 denotes the concentration that produces a half-maximal response. With `Cc1nc(OCc2ccncc2)ccc1C(=O)N[C@H](C)C1CCCCC1` [Example 1.2n.2], the EC50 amounted to 800 nM. Turning to `O=C(NC1CCCCC1)c1ccc(OCC2CCCC2)nc1` [Example 2.3a.4], the EC50 came to 710 nM. With `O=C(NC1CCCCC1)c1ccc(OCc2ccc(F)cc2)nc1` [Example 2.3a.6], the EC50 was 750 nM. With `N#Cc1cccc(COc2ccc(C(=O)NC3CCCCC3)cn2)c1` [Example 2.3a.7] the figure was 95 nM; with `O=C(NC1CCCCC1)c1ccc(OCc2ccsc2)nc1` [Example 2.3a.8], 120 nM. In the case of `O=C(NC1CCCCC1)c1ccc(OCc2nccs2)nc1` [Example 2.3a.9], the concentration for a half-maximal effect (EC50) came to 3100 nM.

With `Cc1ccc(COc2ccc(C(=O)NC3CCC3)cn2)cc1` [Example 2.3b.1], the EC50 was 1800 nM. The same measure for `O=C(NC1CCC1)c1ccc(OCc2ccc(F)cc2)nc1` [Example 2.3b.2]: 1200 nM. On to `CC(C)(C)CCNC(=O)c1ccc(OCc2cccnc2)nc1` [Example 2.3c.1], for which the 50% effective concentration (EC50) is 2900 nM. Consider `CC(C)(C)CCNC(=O)c1ccc(OCc2ccncc2)nc1` [Example 2.3c.2], for which the EC50 is 420 nM.
